We go through two molecules from patent US4115587A, “Fatty acid amides of norfenfluramine and compositions and methods thereof” (A. H. Robins Company, Inc., priority 1976, dated 1978).

Data set [1] is described as follows: Motor activity, modification of the method of Cook et al. Particulars: 6.5 mg/kg, i.p. The data set is classed as in vivo, female albino mice, ICR strain. The source says: Motor activity of norfenfluramine and the amides of norfenfluramine of this invention were compared by determination of the activity in female, albino mice of the ICR strain by a modification of the method of Cook et al. in J. Pharmac. Exp. Ther. 113:11a (1955).

Data set [2] in a line: Neurotoxicity, tremors and lethality. The data set is classed as in vivo, mice. Conditions: i.p.
Data set [3] has as its system β-Sterol Synthesis, Liver. Put plainly: β-Sterol synthesis, acetate-1-14C incorporation, liver (Table 8). The data set is classed as in vivo, male Sprague-Dawley rats. Here is the method:
(§1) The effect of the mixed amides of Example 5 and reference compounds on β Sterol synthesis was determined by a modified procedure of Hill and Dvornik Arch. Biochem. Biophys. 114 (1966), 88. Male Sprague-Dawley rates weighing 127-175 g. were freely provided a basal semi-purified diet and water. The rats were housed in cages with raised wire floors in a room kept at a temperature of 24°-26° C. with a 12-hour day-12-hour night cycle. The cycle was reversed so the night cycle corresponded to the working day to take advantage of the circadian rhythm that favors cholesterol synthesis. The test period was five days and 20 μCi sodium acetate-1-^14 C (Sp. act. 56 mCi/m mole) administered intraperitoneally. Animals were sacrificed under carbon dioxide and the distal 10 cm of the ileum as well as the median and left liver lobes excised and homogenized. Subsequently, the β Sterols were isolated as the digitonide and the radioactivity determined in a Packard Tricarb Liquid Scintillation Spectrometer Model 3385 using 0.5% 2,5 diphenyloxazole and 8% naphthalene in a solvent mixture of 40% toluene, 40% dioxane and 20% absolute ethanol. Data for the effect of the mixed amides of Example 5 on the synthesis of nonsaponifiable substances and β Sterols as determined by the Digitonide method are shown in Table 8. […] A prior art compound, α-methylbenzyllinoleamide at 140 mg/kg, p.o. had no effect on cholesterol synthesis in either tissue.

A further data set deals with Serum Lipoproteins. Nature of the data set: Serum lipoproteins of rats fed semi-purified diet supplemented with cholesterol (Table 7). The data set is classed as in vivo. Conditions: .2% in food. Here is the method: (§2) General feeding experiments were conducted on rats to determine the effect of the amides of this invention on serum and liver lipids of animals fed a basal diet and a basal diet supplemented with cholesterol. In addition, the effect of these drugs on serum lipoproteins was studied as well as their effect on body weight, gross feed efficiency, liver weight, appetite and energy utilization with respect to their metabolic size. Male, Sprague-Dawley rats weighing 150-175 g. were housed in cages with raised wire floors in a room kept at a temperature of 24°-26° C. with a 12-hour day and 12-hour night cycle, fed ad libitum a semipurified diet consisting by weight % composition: vitamin-free casein, 20; glucose, 63; hydrogenated coconut oil, 10; GBI Vitamin Fortification Mixture, Cat. #40060 obtained from General Biochemical Company of Chargrin Falls, Ohio, 1; modified salt mix of Williams and Briggs, Cat. #170911 obtained from General Biochemical Company, 4; and cellulose, 2; and watered. The modified salt mix provided the following amounts in grams of elements per Kg. of diet:
(§3) Diets were supplemented with 0.5% cholic acid, 1% cholesterol, and drug at the expense of glucose. The experimental period was 18-21 days with body weight and food measured at specified intervals. Animals were fasted overnight and terminally bled by cardiac puncture. Blood was anti-coagulated with ethylenediamine tetracetic acid and plasma was separated by centrifugation, and stored at -20° C. Livers were excised, weighed, and stored at -20° C. All samples remained at this temperature until they were analyzed for total lipids, total cholesterol, triglycerides and phospholipids. Gross feed efficiency together with the effect of metabolic size on food intake and the effect of drug on energy utilization were determined.
^a VLDL, very low density lipoproteins; LDL, low density lipoproteins
and HDL, high density lipoproteins as determined on a Beckman-Gilford

The test system of data set [4] is Serum and Liver Lipids. Put plainly: Dietary-induced hyperlipemia test, basal semi-purified diet: serum and liver lipids (Table 3). The data set is classed as in vivo, male Sprague-Dawley rats. Conditions: .2% in food, ± S.D. Here is the method: as §2, §3
(§4) Results of testing the mixed amides of Example 5 and reference compounds in rats on a basal diet according to the foregoing procedure for dietary induced hyperlipemia are in Tables 2 and 3.

Data set [5] has as its system β-Sterol Synthesis, Ileum. Nature of the data set: β-Sterol synthesis, acetate-1-14C incorporation, ileum (Table 8). The data set is classed as in vivo, male Sprague-Dawley rats. Here is the method:
as §1

The conditions of data set [6]: rats; seemed to be caused by reduced feed intake; cited from earlier work.
The nature of data set [7]: Dietary-induced hyperlipemia test, basal semi-purified diet: liver weight, body weight, food consumption (Table 2). The data set is classed as in vivo, male Sprague-Dawley rats. Particulars: .2% in food. As to the method:
as §2, §3, §4

The format of data set [8] is in vivo, male Sprague-Dawley rats. Conditions: cholesterol diet, .2% in food. As to the method: as §2, §3
(§5) Results of testing the mixed amides of Example 5 an reference compounds in rats on a basal diet with added cholesterol according to the foregoing procedure for dietary induced hyperlipemia are in Tables 4 and 5.

The test system of data set [9] is Serum and Liver Lipids. Nature of the data set: Dietary-induced hyperlipemia test, basal diet with cholesterol: serum and liver lipids (Table 5). Conditions: .2% in food, ± S.D. The data set is classed as in vivo, male Sprague-Dawley rats. Here is the method:
as §2, §3, §5

Molecules are shown by their SMILES. Read-outs that look alike come from different tables or passages of the source.

Regarding `CC(N)Cc1cccc(C(F)(F)F)c1` (stereo not drawn) [norfenfluramine], in data set [1], the “effect on motor activity” value was “strong effect”. Besides, the tremors entry in [2] (40 mg/kg) is given as “tremors were observed”. Moreover, the lethality result in [2] (100 mg/kg) is “lethality”.

`CCCCC/C=C\C/C=C\CCCCCCCC(=O)NC(C)c1ccccc1` (stereo not drawn) [α-methylbenzyl linoleamide]: in data set [3] (Liver, 140 mg/kg p.o., ± S.D.), the “Acetate-1-14C incorporated, Digitonide” value is 3.882 ± 2.887 n moles/g tissue and the “Acetate-1-14C incorporated, Non-saponifiable” value was 4.533 ± 3.131 n moles/g tissue. Besides, the “effect on cholesterol synthesis” value in data set [3] (liver, 140 mg/kg, p.o.) is reported as “no effect”. In addition, in the data set on Serum Lipoproteins, the “Albumin, Percentage Composition” value is 15.65%; the “HDL, Percentage Composition” value is 29.62%; the “LDL, Percentage Composition” value stood at 18.51%; the “VLDL, Percentage Composition” value stood at 36.19%. Further, in the data set with Serum and Liver Lipids [4], the “Liver Cholesterol” value is recorded as 3.34 ± .24 mg/g; the “Liver Lipids, Total” value came out at 40.05 ± 11.37 mg/g; the “Liver Triglycerides” value was determined as 4.85 ± 2.71 mg/g; the “Serum Cholesterol” value is 77.50 ± 3.91 mg/100 ml. In the data set with Serum and Liver Lipids [4], the “Serum Lipids, Total” value came to 199.80 ± 60.9 mg/100 ml and the “Serum Triglycerides” value amounted to 72.33 ± 29.92 mg/100 ml. Further, in [5] (Ileum, 140 mg/kg p.o., ± S.D.), the “Acetate-1-14C incorporated, Digitonide” value is 5.947 ± .654 n moles/g tissue and the “Acetate-1-14C incorporated, Non-saponifiable” value is listed as 7.648 ± 1.664 n moles/g tissue. In addition, in [5] (ileum, 140 mg/kg, p.o.), the “effect on cholesterol synthesis” value was “no effect”. The “gain in body weight” value in data set [6] is reported as “did suppress gain in body weight”. Besides, the “Food Consumed” value in data set [7] was determined as 331 g. The “Gross Feed Efficiency” value in data set [7] (gross weight gain in grams/total food consumed in grams) is “.210”. For the same molecule, in data set [7] (± S.D.), the “Body wt, Final” value is recorded as 226 ± 30 g; the “Liver wt per 100 g body wt.” value is listed as 2.9 ± .3 g; the “Liver wt, Total” value was 6.7 ± .8 g. For the same molecule, the “Food Consumed” value in [8] is 311 g. Further, the “Gross Feed Efficiency” value in [8] (gross weight gain/total food consumed in grams) is “.177”. For the same molecule, in data set [8] (± S.D.), the “Body wt, Final” value worked out at 192 ± 25 g; the “Liver wt per 100 g body wt.” value was 3.7 ± .2 g; the “Liver wt, Total” value is reported as 7.1 ± 1.3 g. Further, the “Liver Triglycerides” value in the data set on Serum and Liver Lipids [9] is 4.35 ± 2.88 mg/g. Besides, the “Serum Cholesterol” value in the data set with Serum and Liver Lipids [9] (p<.05 for Ex. 5) amounted to 197.75 ± 23.24 mg/100 ml. Besides, in the data set on Serum and Liver Lipids [9] (p<.05 for all), the “Liver Cholesterol” value was determined as 8.33 ± 1.37 mg/g; the “Liver Lipids, Total” value is 84.00 ± 14.26 mg/g; the “Serum Lipids, Total” value is given as 453.25 ± 90.58 mg/100 ml. The “Serum Triglycerides” value with Serum and Liver Lipids [9] (p<.05 for clofibrate) was 262.50 ± 51.88 mg/100 ml.
